The values that follow come from patent publication US7635692B2, “Composition for the prevention of osteoporosis comprising a combination of isoflavones and polyunsaturated fatty acids” (DSM IP Assets B.V., priority 2001, dated 2009).

Data set [1] is described as follows: Plasma genistein level in rats after feed admix. As to conditions: genistein 15 mg/kg BW per day, comparable to Japanese people on a traditional diet. It is filed as in vivo, rat. From the text:
(§1) In the experimental set up data were elaborated using the ovariectomized rat osteoporosis (OVX) model. This model mimics the estrogen deficient status as found in postmenopausal women or poststerilized female pets leading to osteoporosis. The SHAM group with intact ovaries served as control. Each test group consisted of 10-12 animals. The feed used was free of isoflavones, such as, for example, genistein. The test compounds in various combinations as given in Table 1 have been administered by feed admix. […] The administration of vitamin K1, in an amount of 20 μg/kg feed corresponds to a daily dosage of about 1 μg/kg BW, the estimated daily requirement of vitamin K1. The amount of vitamin D3 was 500 IU/kg feed which corresponds to a daily dosage of 25 IU/kg BW, the estimated daily requirement. For fortification, PUFA (5% of ROPUPA “30” n-3 Food Oil) was added to the feed corresponding to a PUPA fortification of % in feed as given in Table 1. Bone mineral density, osteocalcin, and deoxypyridinolin have been measured 84 days post intervention.

The subject of data set [2] is ovariectomized rat osteoporosis (OVX) model. Briefly: Bone mineral density (BMD) of femur by DXA in the OVX rat model. It is filed as in vivo. Conditions: OVX rats. The text has this:
In the following experimental section dual-energy X-ray absorptiometry (DXA) was used to measure bone mineral density.
In the experimental set up data were elaborated using the ovariectomized rat osteoporosis (OVX) model. This model mimics the estrogen deficient status as found in postmenopausal women or poststerilized female pets leading to osteoporosis. The SHAM group with intact ovaries served as control. Each test group consisted of 10-12 animals. The feed used was free of isoflavones, such as, for example, genistein. […] The administration of vitamin K1, in an amount of 20 μg/kg feed corresponds to a daily dosage of about 1 μg/kg BW, the estimated daily requirement of vitamin K1. The amount of vitamin D3 was 500 IU/kg feed which corresponds to a daily dosage of 25 IU/kg BW, the estimated daily requirement. For fortification, PUFA (5% of ROPUPA “30” n-3 Food Oil) was added to the feed corresponding to a PUPA fortification of % in feed as given in Table 1. Bone mineral density, osteocalcin, and deoxypyridinolin have been measured 84 days post intervention.
Bone mineral density (BMD) measurement in the femur of OVX rats: […]

For data set [3] the test system is unchanged. The data set can be described thus: Deoxypyridinoline excretion (bone resorption marker) in OVX rats. It is filed as in vivo. Here is the method: Deoxypyridinoline (DPD) crosslinks excretion provides a highly specific marker for bone resorption. DPD crosslinks excretion was measured as a marker for bone resorption. The values have to be corrected for urinary concentration by creatinine measurement as it is known in the art.
as §1
Deoxypyridinoline (bone resorption marker) measurement in OVX rats: […]

Data set [4] has the same test system. The data set can be described thus: Serum osteocalcin (bone formation marker) in OVX rats. It is filed as in vivo. Here is the method: Osteocalcin, a biochemical marker for bone formation, is a bone-specific protein secreted primarily in osteoblasts, i.e. the bone forming cells. Serum osteocalcin was measured as marker for bone formation.
as §1
Serum Osteocalcin (bone formation marker) measurement in OVX rats: […]

Where [5] appears, read: 84 days post intervention, compared with the other groups.

Take `O=c1c(-c2ccc(O)cc2)coc2cc(O)cc(O)c12` [Genistein, 4′,5,7-trihydroxy-isoflavone]: in data set [1], the plasma genistein level is given as about 280 nM. The “Effect on BMD (in words)” value in data set [2] (setting [5]) is on record as “improved BMD to control values”. Also, the “Bone mineral density of femur, Mean” value in data set [2] (feed admix, day 84 postintervention, DXA) worked out at 0.143 g/cm^2. In addition, the “Effect on DPD excretion (in words)” value in data set [3] (setting [5]) was “restores DPD excretion to values of the control group”. Also, the “Deoxypyridinoline excretion, Mean” value in data set [3] (feed admix, day 84 postintervention, corrected by creatinine) was found to be 220.5 nmol DPD/mmol Creatinine. In addition, in data set [4] (setting [5]), the “Effect on serum osteocalcin levels (in words)” value is “reduced osteocalcin levels to control values”. The “Serum osteocalcin, Mean serum conc.” value in data set [4] (feed admix, day 84 postintervention) worked out at 14.6 ng/mL.
